ChEMBL document CHEMBL3822442, “Synthesis and Pharmacological Characterization of Novel Glucagon-like Peptide-2 (GLP-2) Analogues with Low Systemic Clearance” (J Med Chem, 2016)
The source made the active and inactive calls. The calls are words filed in the database; no cut-off is given here.

Tests used:
[1] = molecular target: T1, Glucagon-like peptide 2 receptor (Homo sapiens, UniProt O95838); test: Agonist activity at human GLP2R expressed in HEK293 cells after 5 hrs by luciferase reporter gene assay; assay type: cell-based
T1 sequence (O95838 whole entry): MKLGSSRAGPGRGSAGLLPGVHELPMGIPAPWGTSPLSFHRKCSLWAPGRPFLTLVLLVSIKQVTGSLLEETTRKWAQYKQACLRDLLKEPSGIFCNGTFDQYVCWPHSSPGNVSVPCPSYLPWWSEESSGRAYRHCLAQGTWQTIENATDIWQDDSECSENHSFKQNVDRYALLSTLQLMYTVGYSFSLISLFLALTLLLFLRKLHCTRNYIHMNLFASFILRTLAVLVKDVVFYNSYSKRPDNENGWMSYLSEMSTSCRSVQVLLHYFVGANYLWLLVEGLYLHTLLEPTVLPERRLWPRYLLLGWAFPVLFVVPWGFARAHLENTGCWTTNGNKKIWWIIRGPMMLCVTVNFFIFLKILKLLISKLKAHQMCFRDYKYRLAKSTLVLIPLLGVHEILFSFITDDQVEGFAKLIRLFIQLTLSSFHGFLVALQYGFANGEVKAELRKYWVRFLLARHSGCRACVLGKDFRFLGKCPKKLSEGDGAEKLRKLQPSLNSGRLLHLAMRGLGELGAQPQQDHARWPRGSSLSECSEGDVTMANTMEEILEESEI

[2] = molecular target: Glucagon-like peptide 1 receptor (Homo sapiens, UniProt P43220); test: Agonist activity at human GLP1R expressed in HEK293 cells after 5 hrs by luciferase reporter gene assay; assay type: cell-based
Sequence of Glucagon-like peptide 1 receptor (P43220 whole entry): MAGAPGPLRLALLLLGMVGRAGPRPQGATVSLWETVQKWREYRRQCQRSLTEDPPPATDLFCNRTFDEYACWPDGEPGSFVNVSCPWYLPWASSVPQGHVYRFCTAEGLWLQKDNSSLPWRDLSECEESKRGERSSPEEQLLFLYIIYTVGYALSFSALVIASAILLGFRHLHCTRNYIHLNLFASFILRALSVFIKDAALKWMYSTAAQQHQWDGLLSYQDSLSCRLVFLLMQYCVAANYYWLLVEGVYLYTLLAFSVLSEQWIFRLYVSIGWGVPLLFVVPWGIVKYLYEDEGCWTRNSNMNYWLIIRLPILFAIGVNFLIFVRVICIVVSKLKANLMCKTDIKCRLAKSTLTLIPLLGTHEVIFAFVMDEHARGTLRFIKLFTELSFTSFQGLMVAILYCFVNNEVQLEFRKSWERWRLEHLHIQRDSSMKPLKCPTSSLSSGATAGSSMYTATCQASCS

HEK293 = test: Selectivity ratio of EC50 for human GLP1R expressed in HEK293 cells to EC50 for human GLP2R expressed in HEK293; assay type: cell-based
[3] = Systemic clearance in Sprague-Dawley rat at 0.2 mg/kg, iv through cassette dosing measured up to 300 mins by LC/MS/MS analysis; assay type: ADME, organism-based; details: in vivo
[4] = molecular target: Glucagon receptor (Homo sapiens) (UniProt P47871); test: Agonist activity at human GCGR expressed in HEK293 cells after 5 hrs by luciferase reporter gene assay; assay type: cell-based
Sequence of Glucagon receptor (Homo sapiens) (P47871 whole entry): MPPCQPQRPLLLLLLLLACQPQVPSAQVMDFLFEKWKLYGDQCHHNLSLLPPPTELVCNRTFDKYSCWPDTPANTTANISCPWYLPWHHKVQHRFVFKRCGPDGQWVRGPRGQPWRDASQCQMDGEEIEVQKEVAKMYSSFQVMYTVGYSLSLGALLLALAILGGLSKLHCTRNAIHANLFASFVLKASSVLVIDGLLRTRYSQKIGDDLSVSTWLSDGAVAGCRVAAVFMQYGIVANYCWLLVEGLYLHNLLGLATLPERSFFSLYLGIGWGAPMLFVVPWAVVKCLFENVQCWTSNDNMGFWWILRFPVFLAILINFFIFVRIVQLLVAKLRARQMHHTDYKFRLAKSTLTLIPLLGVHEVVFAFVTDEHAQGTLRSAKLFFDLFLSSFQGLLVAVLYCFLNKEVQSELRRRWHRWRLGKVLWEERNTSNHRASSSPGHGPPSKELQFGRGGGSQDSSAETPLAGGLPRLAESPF

Row | EC50 [1] | EC50 [2] | clearance [3] | Activity [4] | Structure (SMILES) | Ratio EC50 (HEK293)
1 | 0.07 nM | 90 nM | 0.48 mL/min/kg |  | CCCCC(NC(=O)[C@H](CCC(=O)O)NC(=O)[C@H](CC(=O)O)NC(=O)[C@H](CO)NC(=O)[C@H](Cc1ccccc1)NC(=O)[C@H](CO)NC(=O)CNC(=O)[C@H](CC(=O)O)NC(=O)CNC(=O)[C@@H](N)Cc1cnc[nH]1)C(=O)N[C@H](Cc1ccccc1)C(=O)N[C@H](C(=O)N[C@H](C(=O)N[C@@H](CC(C)C)C(=O)N[C@@H](CC(=O)O)C(=O)N[C@@H](Cc1ccc(O)cc1)C(=O)N[C@@H](CC(C)C)C(=O)N[C@@H](C)C(=O)N[C@@H](C)C(=O)N[C@@H](CCCNC(=N)N)C(=O)N[C@@H](CC(=O)O)C(=O)N[C@@H](Cc1ccccc1)C(=O)N[C@H](C(=O)N[C@@H](CC(N)=O)C(=O)N[C@@H](Cc1c[nH]c2ccccc12)C(=O)N[C@@H](CC(C)C)C(=O)N[C@H](C(=O)N[C@@H](CCC(N)=O)C(=O)N[C@H](C(=O)N[C@@H](CCCCN)C(N)=O)[C@@H](C)O)[C@@H](C)CC)[C@@H](C)CC)[C@@H](C)CC)[C@@H](C)O (stereo partly specified) | 1200
2 |  |  |  | inactive | CCCCC(NC(=O)[C@H](CCC(=O)O)NC(=O)[C@H](CC(=O)O)NC(=O)[C@H](CO)NC(=O)[C@H](Cc1ccccc1)NC(=O)[C@H](CO)NC(=O)CNC(=O)[C@H](CC(=O)O)NC(=O)CNC(=O)[C@@H](N)Cc1cnc[nH]1)C(=O)N[C@H](CC(C)C)C(=O)N[C@H](C(=O)N[C@H](C(=O)N[C@@H](CC(C)C)C(=O)N[C@@H](CC(=O)O)C(=O)N[C@@H](CC(N)=O)C(=O)N[C@@H](CC(C)C)C(=O)N[C@@H](C)C(=O)N[C@@H](C)C(=O)N[C@@H](CCCNC(=N)N)C(=O)N[C@@H](CC(=O)O)C(=O)N[C@@H](Cc1ccccc1)C(=O)N[C@H](C(=O)N[C@@H](CC(N)=O)C(=O)N[C@@H](Cc1c[nH]c2ccccc12)C(=O)N[C@@H](CC(C)C)C(=O)N[C@H](C(=O)N[C@@H](CCC(N)=O)C(=O)N[C@H](C(=O)N[C@@H](CCCCN)C(N)=O)[C@@H](C)O)[C@@H](C)CC)[C@@H](C)CC)[C@@H](C)CC)[C@@H](C)O (stereo partly specified) | 
3 |  |  |  |  | CCCCC(NC(=O)[C@H](CCC(=O)O)NC(=O)[C@H](CC(=O)O)NC(=O)[C@H](CO)NC(=O)[C@H](Cc1ccccc1)NC(=O)[C@H](CO)NC(=O)CNC(=O)[C@H](CC(=O)O)NC(=O)CNC(=O)[C@@H](N)Cc1cnc[nH]1)C(=O)N[C@H](Cc1ccccc1)C(=O)N[C@H](C(=O)N[C@H](C(=O)N[C@@H](CC(C)C)C(=O)N[C@@H](CC(=O)O)C(=O)N[C@@H](CC(C)C)C(=O)N[C@@H](CC(C)C)C(=O)N[C@@H](C)C(=O)N[C@@H](C)C(=O)N[C@@H](CCCNC(=N)N)C(=O)N[C@@H](CC(=O)O)C(=O)N[C@@H](Cc1ccccc1)C(=O)N[C@H](C(=O)N[C@@H](CC(N)=O)C(=O)N[C@@H](Cc1c[nH]c2ccccc12)C(=O)N[C@@H](CC(C)C)C(=O)N[C@H](C(=O)N[C@@H](CCC(N)=O)C(=O)N[C@H](C(=O)N[C@@H](CCCCN)C(=O)N[C@H](C(=O)N[C@H](C(=O)N[C@@H](CC(=O)O)C(=O)NCCOCCOCCOCCOCCC(N)=O)[C@@H](C)O)[C@@H](C)CC)[C@@H](C)O)[C@@H](C)CC)[C@@H](C)CC)[C@@H](C)CC)[C@@H](C)O (stereo partly specified) | > 33000
4 |  |  |  |  | CCCCC(NC(=O)[C@H](CCC(=O)O)NC(=O)[C@H](CC(=O)O)NC(=O)[C@H](CO)NC(=O)[C@H](Cc1ccccc1)NC(=O)[C@H](CO)NC(=O)CNC(=O)[C@H](CC(=O)O)NC(=O)CNC(=O)[C@@H](N)Cc1cnc[nH]1)C(=O)N[C@H](Cc1ccccc1)C(=O)N[C@H](C(=O)N[C@H](C(=O)N[C@@H](CC(C)C)C(=O)N[C@@H](CC(=O)O)C(=O)N[C@@H](CC(C)C)C(=O)N[C@@H](CC(C)C)C(=O)N[C@@H](C)C(=O)N[C@@H](C)C(=O)N[C@@H](CCCNC(=N)N)C(=O)N[C@@H](CC(=O)O)C(=O)N[C@@H](Cc1ccccc1)C(=O)N[C@H](C(=O)N[C@@H](CC(N)=O)C(=O)N[C@@H](Cc1c[nH]c2ccccc12)C(=O)N[C@@H](CC(C)C)C(=O)N[C@H](C(=O)N[C@@H](CCC(N)=O)C(=O)N[C@H](C(=O)N[C@@H](CCCCN)C(N)=O)[C@@H](C)O)[C@@H](C)CC)[C@@H](C)CC)[C@@H](C)CC)[C@@H](C)O (stereo partly specified) | > 12000
5 |  |  |  |  | CCCCC(NC(=O)[C@H](CCC(=O)O)NC(=O)[C@H](CC(=O)O)NC(=O)[C@H](CO)NC(=O)[C@H](Cc1ccccc1)NC(=O)[C@H](CO)NC(=O)CNC(=O)[C@H](CC(=O)O)NC(=O)CNC(=O)[C@@H](N)Cc1cnc[nH]1)C(=O)N[C@H](Cc1ccccc1)C(=O)N[C@H](C(=O)N[C@H](C(=O)N[C@@H](CC(C)C)C(=O)N[C@@H](CC(=O)O)C(=O)N[C@@H](CC(C)C)C(=O)N[C@@H](CC(C)C)C(=O)N[C@@H](C)C(=O)N[C@@H](C)C(=O)N[C@@H](CCCNC(=N)N)C(=O)N[C@@H](CC(=O)O)C(=O)N[C@@H](Cc1ccccc1)C(=O)N[C@H](C(=O)N[C@@H](CC(N)=O)C(=O)N[C@@H](Cc1c[nH]c2ccccc12)C(=O)N[C@@H](CC(C)C)C(=O)N[C@H](C(=O)N[C@@H](CCC(N)=O)C(=O)N[C@H](C(=O)N[C@@H](CCCCN)C(=O)N[C@H](C(=O)N[C@H](C(=O)N[C@@H](CC(=O)O)C(=O)NCC)[C@@H](C)O)[C@@H](C)CC)[C@@H](C)O)[C@@H](C)CC)[C@@H](C)CC)[C@@H](C)CC)[C@@H](C)O (stereo partly specified) | > 20000
6 |  |  |  |  | CCCCC(NC(=O)[C@H](CCC(=O)O)NC(=O)[C@H](CC(=O)O)NC(=O)[C@H](CO)NC(=O)[C@H](Cc1ccccc1)NC(=O)[C@H](CO)NC(=O)CNC(=O)[C@H](CC(=O)O)NC(=O)CNC(=O)[C@@H](N)Cc1cnc[nH]1)C(=O)N[C@H](Cc1ccccc1)C(=O)N[C@H](C(=O)N[C@H](C(=O)N[C@@H](CC(C)C)C(=O)N[C@@H](CC(=O)O)C(=O)N[C@@H](CC(C)C)C(=O)N[C@@H](CC(C)C)C(=O)N[C@@H](C)C(=O)N[C@@H](C)C(=O)N[C@@H](CCCNC(=N)N)C(=O)N[C@@H](CC(=O)O)C(=O)N[C@@H](Cc1ccccc1)C(=O)N[C@H](C(=O)N[C@@H](CC(N)=O)C(=O)N[C@@H](Cc1c[nH]c2ccccc12)C(=O)N[C@@H](CC(C)C)C(=O)N[C@H](C(=O)N[C@@H](CCC(N)=O)C(=O)N[C@H](C(=O)N[C@@H](CCCCN)C(=O)N[C@H](C(=O)N[C@H](C(=O)N[C@@H](CC(=O)O)C(N)=O)[C@@H](C)O)[C@@H](C)CC)[C@@H](C)O)[C@@H](C)CC)[C@@H](C)CC)[C@@H](C)CC)[C@@H](C)O (stereo partly specified) | > 33000
7 | 0.22 nM | > 1000 nM | 0.67 mL/min/kg |  | CCCC[C@H](NC(=O)[C@H](CCC(=O)O)NC(=O)[C@H](CC(=O)O)NC(=O)[C@H](CO)NC(=O)[C@H](Cc1ccccc1)NC(=O)[C@H](CO)NC(=O)CNC(=O)[C@H](CC(=O)O)NC(=O)CNC(=O)[C@@H](N)Cc1cnc[nH]1)C(=O)N[C@@H](CC(N)=O)C(=O)N[C@H](C(=O)N[C@H](C(=O)N[C@@H](CC(C)C)C(=O)N[C@@H](CC(=O)O)C(=O)N[C@@H](Cc1ccc(Cl)cc1)C(=O)N[C@@H](CC(C)C)C(=O)N[C@@H](C)C(=O)N[C@@H](C)C(=O)N[C@@H](CCCNC(=N)N)C(=O)N[C@@H](CC(=O)O)C(=O)N[C@@H](Cc1ccccc1)C(=O)N[C@H](C(=O)N[C@@H](CC(N)=O)C(=O)N[C@@H](Cc1c[nH]c2ccccc12)C(=O)N[C@@H](CC(C)C)C(=O)N[C@H](C(=O)N[C@@H](CCC(N)=O)C(=O)N[C@H](C(=O)N[C@@H](CCCCN)C(N)=O)[C@@H](C)O)[C@@H](C)CC)[C@@H](C)CC)[C@@H](C)CC)[C@@H](C)O | 
8 | 0.07 nM | 70 nM | 0.52 mL/min/kg |  | CCCCC(NC(=O)[C@H](CCC(=O)O)NC(=O)[C@H](CC(=O)O)NC(=O)[C@H](CO)NC(=O)[C@H](Cc1ccccc1)NC(=O)[C@H](CO)NC(=O)CNC(=O)[C@H](CC(=O)O)NC(=O)CNC(=O)[C@@H](N)Cc1cnc[nH]1)C(=O)N[C@H](Cc1cccs1)C(=O)N[C@H](C(=O)N[C@H](C(=O)N[C@@H](CC(C)C)C(=O)N[C@@H](CC(=O)O)C(=O)N[C@@H](Cc1ccc(O)cc1)C(=O)N[C@@H](CC(C)C)C(=O)N[C@@H](C)C(=O)N[C@@H](C)C(=O)N[C@@H](CCCNC(=N)N)C(=O)N[C@@H](CC(=O)O)C(=O)N[C@@H](Cc1ccccc1)C(=O)N[C@H](C(=O)N[C@@H](CC(N)=O)C(=O)N[C@@H](Cc1c[nH]c2ccccc12)C(=O)N[C@@H](CC(C)C)C(=O)N[C@H](C(=O)N[C@@H](CCC(N)=O)C(=O)N[C@H](C(=O)N[C@@H](CCCCN)C(N)=O)[C@@H](C)O)[C@@H](C)CC)[C@@H](C)CC)[C@@H](C)CC)[C@@H](C)O (stereo partly specified) | 
9 |  |  |  |  | CCCCC(NC(=O)[C@H](CCC(=O)O)NC(=O)[C@H](CC(=O)O)NC(=O)[C@H](CO)NC(=O)[C@H](Cc1ccccc1)NC(=O)[C@H](CO)NC(=O)CNC(=O)[C@H](CC(=O)O)NC(=O)CNC(=O)[C@@H](N)Cc1cnc[nH]1)C(=O)N[C@H](Cc1ccccc1)C(=O)N[C@H](C(=O)N[C@H](C(=O)N[C@@H](CC(C)C)C(=O)N[C@@H](CC(=O)O)C(=O)N[C@@H](CC(C)C)C(=O)N[C@@H](CC(C)C)C(=O)N[C@@H](C)C(=O)N[C@@H](C)C(=O)N[C@@H](CCCNC(=N)N)C(=O)N[C@@H](CC(=O)O)C(=O)N[C@@H](Cc1ccccc1)C(=O)N[C@H](C(=O)N[C@@H](CC(N)=O)C(=O)N[C@@H](Cc1c[nH]c2ccccc12)C(=O)N[C@@H](CC(C)C)C(=O)N[C@H](C(=O)N[C@@H](CCC(N)=O)C(=O)N[C@H](C(=O)N[C@@H](CCCCN)C(=O)N[C@H](C(=O)N[C@H](C(=O)N[C@@H](CC(=O)O)C(=O)O)[C@@H](C)O)[C@@H](C)CC)[C@@H](C)O)[C@@H](C)CC)[C@@H](C)CC)[C@@H](C)CC)[C@@H](C)O (stereo partly specified) | > 33000
